In one test the test system is E. coli. The test can be described thus: MIC, E. coli. The format is cell-based. As to conditions: Escherichia coli. The text has this:
(§1) Primary screening of the compounds of the invention included the evaluation of antibacterial activity of analogs through determination of microbial inhibition concentration (MIC) as per CLSI guidelines. The screening panel included the relevant BRD pathogens: 1) M. haemolytica (e.g., 12726, 46571 and 49023, all AHDRCC; and 33396 (ATCC)); and 2) P. multocida (e.g., 34135 and 46572 (both AHDRCC) and 43137 (ATCC)). In some instances, H. somni (A700025K) pathogens were also included in the screening panel. The AHDRCC strains originated from the Zoetis BRD/SRD surveillance program and refer to the Animal Health Development and Research Culture Collection. In addition, the screen assessed S. aureus (29213 ATCC) as a representative Gram-positive isolate, E.faecalis (19433 ATCC) as a commensal gram-positive gastrointestinal bacterium and E. coli (100, 3110 and 25922 (ATCC)) for the evaluation of efflux potential. The screening panel BRD pathogens were assessed in determining antibacterial activity of the Formula (1) compounds.
(§2) All relevant BRD pathogens were initially screened at a top concentration of 64 μg/mL of a Formula (1) compound in an eleven-point dilution series. […] If an Example was purified further, the MICs moved […] essentially two dilutions across all strains tested in the screening panel.
(§3) In-Vitro MIC Model Compounds were analyzed for antibacterial activity against a panel of animal health specific gram-positive and gram-negative clinical strains by diluting compounds in DMSO to an appropriate stock concentration to determine the Minimal Inhibitory Concentration (MIC) via a semi-automated broth micro-dilution method (CLSI reference method) with QC strains and anti-microbial agent(s). Specifically, bacteria were grown overnight on TSA w/5% sheep blood agar plates and diluted in saline buffer to a McFarland Standard 0.5, then further diluted in cation-ion adjusted Mueller Hinton Broth to a final concentration of approximately 5×10^5 CFU/mL. 100 μL of inoculated media was added to 96-well plate(s) with 3 μL of serially diluted compound in each row. Depending on strain (see CLSI reference method), bacteria were incubated 18-22 hours at 35-37° C. in ambient air, with 5% CO2 or anaerobically (up to 48 hours).

For a further test, the system named is M. haemolytica. The test can be described thus: MIC, M. haemolytica strains. The format is cell-based. As to conditions: Mannheimia haemolytica.
Description: as §1, §2, §3

Another test concerns P. multocida 46572. Nature of the test: In vivo mouse lung infection challenge model (murine efficacy), survival. Set-up: species or system CD-1 female mice. As to conditions: 20 mg/kg subcutaneous; for % Survival: P. multocida 46572 intranasal challenge, harmonized relative to vehicle (−) and M9 (+) controls. The protocol:
The challenge organism was P. multocida 46572. Target challenge concentration was 5×10^2 CFU/mouse. Isolated colonies from overnight growth (37° C. with 5% CO2) on trypticase soy agar (TSA II) blood plates were transferred to room temperature Brain Heart Infusion Broth (BHIB). The broth culture was incubated 3.5-4 hours to approximately mid-log phase of growth, as measured by forward light scatter at 600 nm (OD600, 0.200). The culture was centrifuged to collect the bacterial pellet. The pellet was re-suspended in BHIB and adjusted to provide an approximate concentration of 2.7 log 10 colony forming units (CFU) in 0.04 mL at the highest concentration. The challenge inoculum concentration was confirmed by serial dilutions of the inoculum for CFU enumeration. On Day −5, CD −1 female mice were received. Mice were given standard rodent diet and water ad libitum. On Day 0, bacterial inoculum (0.04 mL) was administered to each mouse (n=36) intranasally. Compounds of the invention were dosed at 20 mg/kg (0.1 mL) in a buffered (˜pH 5.4) propylene glycol, monothioglycerol and water solution by subcutaneous injection. Animals were observed from Days 1-10. The study was terminated on Day 10. In addition, some treatment groups were sampled at 6, 24, and 48 hours post bacterial challenge for RNA sequence analysis of lung tissue.
The murine efficacy model (P.multocida challenge) was optimized, and the treatment group size was powered to be able to observe statistically significant improvement of survival to expected ranges for immunomodulatory compounds. The experimental design was a randomized complete block design. Mice were individually identified and treatment groups comingled within a cage, with every treatment group equally represented across cages. Mortality was the primary variable. Mortality data was analyzed using a generalized mixed model with fixed effect of treatment and random effect of block. Survival time was also analyzed using the SAS PHREG (survival analysis) procedure to examine whether there were significant differences between treatment groups and the control group. Numerous compounds of the invention and M9 (positive control) were tested in this model at a dose of 20 mg/kg (Table 3). Typical percent survival for no treatment control is in the range of 0-20% based on study to study variation in challenge inoculum and rate of infection. […] Mouse survival for M9 was about 90-100%, further supporting its residual antibacterial properties against the bacterial strain.

Where [1] appears, read: M. haemolytica 46571, bovine efficacy challenge strain.

≈ marks a conversion by molar mass, not a printed value.

As a reminder, the MIC is the smallest concentration in the dilution series that meets the test's criterion for growth inhibition. A high value points to weaker potency.

In the case of `CC[C@H]1OC(=O)[C@H](C)[C@@H](O[C@H]2C[C@@](C)(OC)[C@](O)(CN3CCCCC3)[C@H](C)O2)[C@H](C)[C@@H](O[C@@H]2O[C@H](C)C[C@H](N(C)S(=O)(=O)c3ccc(Cl)cc3)[C@H]2O)[C@](C)(O)C[C@@H](C)CN[C@H](C)[C@@H](O)[C@]1(C)O` [Example C-4, 4-chloro-N-((2S,3R,4S,6R)-2-(((2R,3S,4R,5R,8R,10R,11R,12S,13S,14R)-2-ethyl-3,4,10-trihydroxy-13-(((2R,4R,5S,6S)-5-hydroxy-4-methoxy-4,6-dimethyl-5-(piperidin-1-ylmethyl)tetrahydro-2H-pyran-2-yl)oxy)-3,5,8, 10, 12, 14-hexamethyl-15-oxo-1-oxa-6-azacyclopentadecan-11-yl)oxy)-3-hydroxy-6-methyltetrahydro-2H-pyran-4-yl)-N-methylbenzenesulfonamide], the MIC in the test with E. coli (E. coli 25922), against E. coli (E. coli W3110), in the test with M. haemolytica (M. haemolytica 12726), in the test with M. haemolytica (M. haemolytica 33396) and against M. haemolytica (setting [1]) was > 128 µg/mL in each case. In addition, the “% Survival” value in the test on P. multocida 46572 was 76%.

In the case of `CC[C@H]1OC(=O)[C@H](C)[C@@H](O)[C@H](C)[C@@H](O[C@@H]2O[C@H](C)C[C@H](N(C)S(=O)(=O)c3ccccc3)[C@H]2Oc2ccc(OC)cc2)[C@](C)(O)C[C@@H](C)CN[C@H](C)[C@@H](O)[C@]1(C)O` [Example A-9, N-((2S,3R,4S,6R)-2-(((2R,3S,4R,5R,8R,10R,11R,12S,13S,14R)-2-ethyl-3,4,10,13-tetrahydroxy-3,5,8,10, 12, 14-hexamethyl-15-oxo-1-oxa-6-azacyclopentadecan-11-yl)oxy)-3-(4-methoxyphenoxy)-6-methyltetrahydro-2H-pyran-4-yl)-N-methylbenzenesulfonamide], the minimal inhibitory concentration (MIC) against E. coli (E. coli 25922), with E. coli (E. coli W3110), with M. haemolytica (M. haemolytica 12726), against M. haemolytica (M. haemolytica 33396) and in the test on M. haemolytica (setting [1]) was > 64 µg/mL each time. Besides, the “% Survival” value with P. multocida 46572 is 41%.

For the compound `CCCNC[C@]1(O)[C@H](C)O[C@@H](O[C@H]2[C@H](C)[C@@H](O[C@@H]3O[C@H](C)C[C@H](NC)[C@H]3O)[C@](C)(O)C[C@@H](C)CN[C@H](C)[C@@H](O)[C@](C)(O)[C@@H](CC)OC(=O)[C@@H]2C)C[C@@]1(C)OC` [Example M9, (2R,3S,4R,5R,8R,10R,11R,12S,13S,14R)-2-ethyl-3,4, 10-trihydroxy-13-(((2R,4R,5S,6S)-5-hydroxy-4-methoxy-4,6-dimethyl-5-((propylamino)methyl)-tetrahydro-2H-pyran-2-yl)oxy)-11-(((2S,3R,4S,6R)-3-hydroxy-6-methyl-4-(methylamino)tetrahydro-2H-pyran-2-yl)oxy)-3,5,8,10,12,14-hexamethyl-1-oxa-6-azacyclopentadecan-15-one], the results for the MIC against E. coli (E. coli 25922), against E. coli (E. coli W3110) and in the test with M. haemolytica (M. haemolytica 12726) were > 64 µg/mL, 64 µg/mL (≈ 80.8 µM) and 22 µg/mL (≈ 27.8 µM), respectively. In addition, the Mouse survival in the test with P. multocida 46572 (M9 positive control) was 90-100%.

Consider `CCCNC[C@]1(O)[C@H](C)O[C@@H](O[C@H]2[C@H](C)[C@@H](O[C@@H]3O[C@H](C)C[C@H](N(C)S(=O)(=O)c4ccc(C)cc4)[C@H]3O)[C@](C)(O)C[C@@H](C)CN[C@H](C)[C@@H](O)[C@](C)(O)[C@@H](CC)OC(=O)[C@@H]2C)C[C@@]1(C)OC` [Example B-26, N-((2S,3R,4S,6R)-2-(((2R,3S,4R,5R,8R,10R,11R,12S,13S,14R)-2-ethyl-3,4,10-trihydroxy-13-(((2R,4R,5S,6S)-5-hydroxy-4-methoxy-4,6-dimethyl-5-((propylamino)methyl)tetrahydro-2H-pyran-2-yl)oxy)-3,5,8,10,12,14-hexamethyl-15-oxo-1-oxa-6-azacyclopentadecan-11-yl)oxy)-3-hydroxy-6-methyltetrahydro-2H-pyran-4-yl)-N,4-dimethylbenzenesulfonamide], for which the MIC against E. coli (E. coli 25922), in the test with E. coli (E. coli W3110), in the test with M. haemolytica (M. haemolytica 12726), against M. haemolytica (M. haemolytica 33396) and against M. haemolytica (setting [1]) was > 64 µg/mL in each case. In addition, the “% Survival” value in the test with P. multocida 46572 was 37%.

For `CC[C@H]1OC(=O)[C@H](C)[C@@H](O[C@H]2C[C@@](C)(OC)[C@](O)(CN3CCCCC3)[C@H](C)O2)[C@H](C)[C@@H](O[C@@H]2O[C@H](C)C[C@H](N(C)S(=O)(=O)Nc3ccc(C(F)(F)F)cc3)[C@H]2O)[C@](C)(O)C[C@@H](C)CN[C@H](C)[C@@H](O)[C@]1(C)O` [Example C-11, (2R,3S,4R,5R,8R,10R,11R,12S, 13S, 14R)-2-ethyl-3,4, 10-trihydroxy-13-[(2R,4R,5S,6S)-5-hydroxy-4-methoxy-4,6-dimethyl-5-(piperidin-1-ylmethyl)oxan-2-yl]oxy-11-[(2S,3R,4S,6R)-3-hydroxy-6-methyl-4-[methyl-[[4-(trifluoromethyl)phenyl]sulfamoyl]amino]oxan-2-yl]oxy-3,5,8, 10, 12, 14-hexamethyl-15-oxo-1-oxa-6-azacyclopentadecane], the MIC against E. coli (E. coli 25922), against E. coli (E. coli W3110), in the test with M. haemolytica (M. haemolytica 12726), against M. haemolytica (M. haemolytica 33396) and in the test with M. haemolytica (setting [1]) was > 64 µg/mL each time. For the same compound, the “% Survival” value with P. multocida 46572 was found to be 56%.

For the compound `CCCNC[C@]1(O)[C@H](C)O[C@@H](O[C@H]2[C@H](C)[C@@H](O[C@@H]3O[C@H](C)C[C@H](N(C)S(=O)(=O)Nc4ccc(C(F)(F)F)cc4)[C@H]3O)[C@](C)(O)C[C@@H](C)CN[C@H](C)[C@@H](O)[C@](C)(O)[C@@H](CC)OC(=O)[C@@H]2C)C[C@@]1(C)OC` [Example B-50, (2R,3S,4R,5R,8R,10R,11R,12S,13S, 14R)-2-ethyl-3,4,10-trihydroxy-13-[(2R,4R,5S,6S)-5-hydroxy-4-methoxy-4,6-dimethyl-5-(propylaminomethyl)oxan-2-yl]oxy-11-[(2S,3R,4S,6R)-3-hydroxy-6-methyl-4-[methyl-[[4-(trifluoromethyl)phenyl]sulfamoyl]amino]oxan-2-yl]oxy-3,5,8, 10, 12, 14-hexamethyl-15-oxo-1-oxa-6-azacyclopentadecane], the MIC against E. coli (E. coli 25922), against E. coli (E. coli W3110), against M. haemolytica (M. haemolytica 12726), in the test with M. haemolytica (M. haemolytica 33396) and against M. haemolytica (setting [1]) was > 64 µg/mL each time. In addition, the “% Survival” value in the test on P. multocida 46572 was found to be 88%.

For the origin of these results see patent US20250236616A1, “IMMUNOMODULATING AZALIDES” (Zoetis Services LLC, priority 2021, published 2025).
